Where two headings read alike, the source gives them in different places.
Experiments:
memapsin 2 = target: T1, memapsin 2 (Homo sapiens, UniProt P56817); assay: Inhibition of memapsin 2 proteolytic activity, fluorogenic substrate FS-2; type: biochemical; details: for % Inhibition Mep2: enzyme concentration equals the compound concentration; for % Inh (M1/M2): ratio of % inhibition memapsin 1 / memapsin 2, 1 or less = greater inhibition of memapsin 2; for Vi/Vo: ratio of initial cleavage velocities of FS-2 with/without compound, enzyme and inhibitor concentrations equal (e.g., about 80 nM, 100 nM)
T1 construct: pET-11 vector-derived residues 1-15 of promemapsin 2-T1 (N, cleaved yes); made in house; host or cells: E. coli
T1 sequence (P56817 41-454 limits assumed): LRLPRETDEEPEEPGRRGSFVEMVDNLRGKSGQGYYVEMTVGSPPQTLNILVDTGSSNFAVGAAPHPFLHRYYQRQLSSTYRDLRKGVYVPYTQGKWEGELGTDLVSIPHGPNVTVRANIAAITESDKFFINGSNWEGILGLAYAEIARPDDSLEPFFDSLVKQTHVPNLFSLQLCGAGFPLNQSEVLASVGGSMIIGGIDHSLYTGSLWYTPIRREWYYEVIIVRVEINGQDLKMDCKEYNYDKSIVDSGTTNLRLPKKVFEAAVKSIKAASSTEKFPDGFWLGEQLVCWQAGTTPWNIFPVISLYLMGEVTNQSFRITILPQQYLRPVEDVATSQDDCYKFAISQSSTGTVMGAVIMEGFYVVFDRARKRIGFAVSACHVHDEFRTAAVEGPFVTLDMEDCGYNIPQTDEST
How it was run: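 Spontaneously activated memapsin 2 (80 nM final) equilibrated with inhibitor (about 10 nM–10 μM) in 0.1 M NaOAc pH 4.0 with 10% DMSO for 20 min at 37 °C, with fluorogenic substrate FS-2. Ki converted from Ki apparent using substrate concentration and Km.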

memapsin 1 = target: T2, memapsin 1 (Homo sapiens, UniProt Q9Y5Z0); assay: Inhibition of memapsin 1 proteolytic activity, fluorogenic substrate FS-2; type: biochemical; details: for % Inhibition Mep1: enzyme concentration equals the compound concentration; for Ki: Table 9, read-out: Ki apparent Mep1
T2 construct: pET-11 vector-derived residues 1-14 of promemapsin 1-T1 (N, cleaved yes); made in house; host or cells: E. coli
T2 sequence (Q9Y5Z0 63-466 limits assumed): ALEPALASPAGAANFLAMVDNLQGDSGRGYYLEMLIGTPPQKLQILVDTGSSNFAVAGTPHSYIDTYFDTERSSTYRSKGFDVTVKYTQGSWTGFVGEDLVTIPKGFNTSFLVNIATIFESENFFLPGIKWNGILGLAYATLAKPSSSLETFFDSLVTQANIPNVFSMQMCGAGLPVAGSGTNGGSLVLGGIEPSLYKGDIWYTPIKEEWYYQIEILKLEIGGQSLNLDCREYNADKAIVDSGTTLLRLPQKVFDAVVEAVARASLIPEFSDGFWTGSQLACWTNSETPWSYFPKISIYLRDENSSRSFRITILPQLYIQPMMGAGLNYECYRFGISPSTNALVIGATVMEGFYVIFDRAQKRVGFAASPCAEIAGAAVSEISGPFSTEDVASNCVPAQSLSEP
Method: Vi/Vo depicts the ratio of initial cleavage velocities of the substrate FS-2 (Ermolieff, et al., Biochemistry […]:12450-12456 (2000)) by memapsin 1 or memapsin 2 in the absence (Vo) or presence (Vi) of a compound of the invention. […] The Vi/Vo values depicted in Table 1 were determined at conditions under which the enzyme and inhibitor concentrations were equal (e.g., about 80 nM, 100 nM).
The relationship of Ki (independent of substrate concentration) to Kiapp is a function of substrate concentration in the assay and the Km for cleavage of the substrate by either memapsin 1 or memapsin 2 by the relationship:
An aliquot of the inhibitor of known concentration in DMSO was diluted into 1.8 ml 0.1 M NaOAc, pH 4.0. DMSO and added to a final concentration of 10% (v/v), and memapsin 2 (final concentration of 80 nM), followed by a 20 minute equilibration at 37° C. Compounds were evaluated for the ability to inhibit memapsin 1 and memapsin 2 at concentrations between about 10 nM and about 10 μm of inhibitor.
The relationship of Ki (independent of substrate concentration) to Kiapp is a function of substrate concentration in the assay and the Km for cleavage of the substrate by either memapsin 1 or memapsin 2 by the relationship: […]

[1] = Table 9, read-out: Ki apparent Mep2
[2] = memapsin 2, apparent Ki in presence of substrate FS-2, read-out: Ki app
[3] = memapsin 2, independent of substrate, converted from Ki apparent, read-out: Ki

Structure (SMILES) | Vi/Vo (memapsin 2) | Ki (memapsin 2; [2]) [nM] | Ki (memapsin 2; [3]) [nM] | also measured
Cc1cc(C)n(COC(=O)N[C@@H](CCS(C)(=O)=O)C(=O)N[C@@H](CC(C)C)[C@@H](O)C[C@@H](C)C(=O)N[C@H](C(=O)NCc2ccccc2)C(C)C)n1 [MMI-139] | 0.5 | – | – | % Inhibition Mep2 (memapsin 2): 50%; % Inh (M1/M2) (memapsin 2): 0; % Inhibition Mep1 (memapsin 1): 0%
CSCC[C@H](NC(=O)C(Cn1nc(C)cc1C)C(C)C)C(=O)N[C@@H](CC(C)C)[C@@H](O)C[C@@H](C)C(=O)N[C@H](C(=O)NCC(C)C)C(C)C (stereo partly shown) [MMI-204] | – | 27.4 | 17.1 | Ki (memapsin 2; [1]): 27.4 nM; Ki (memapsin 1): 1030 nM
CSCC[C@H](NC(=O)[C@@H](NC(=O)OC(C)(C)C)C(C)C)C(=O)N[C@@H](CC(C)C)[C@@H](O)C[C@@H](C)C(=O)N[C@H](C(=O)NCc1ccccc1)C(C)C [MMI-017] | – | 3.9 | 2.4 | Ki (memapsin 2; [1]): 3.9 nM; Ki (memapsin 1): 1.2 nM
CSCC[C@H](NC(=O)[C@H](CC(C)C)NC(=O)OC(C)(C)C)C(=O)N[C@@H](CC(C)C)[C@@H](O)C[C@@H](C)C(=O)N[C@H](C(=O)NCC(C)C)C(C)C [MMI-134] | – | 3.48 | 2.18 | % Inhibition Mep2 (memapsin 2): 81%; % Inh (M1/M2) (memapsin 2): 1.21; % Inhibition Mep1 (memapsin 1): 98%
CCCCNC(=O)[C@@H](NC(=O)[C@H](C)C[C@H](O)[C@H](CC(C)C)NC(=O)[C@H](CCSC)NC(=O)OCn1nc(C)cc1C)C(C)C [MMI-167] | 0.56 | 36.6 | 22.8 | % Inhibition Mep2 (memapsin 2): 44%; % Inh (M1/M2) (memapsin 2): 0.18; % Inhibition Mep1 (memapsin 1): 8%
CSCC[C@H](NC(=O)[C@@H](NC(=O)OC(C)(C)C)C(C)C)C(=O)N[C@@H](CC(C)C)[C@@H](O)C[C@@H](CO)C(=O)N[C@H](C(=O)NCc1ccccc1)C(C)C [MMI-132] | 0.46 | 107 | 67.1 | % Inhibition Mep2 (memapsin 2): 47%; % Inh (M1/M2) (memapsin 2): 1.30; % Inhibition Mep1 (memapsin 1): 61%
CSCC[C@H](NC(=O)[C@@H](NC(=O)OC(C)(C)C)C(C)C)C(=O)N[C@@H](CC(C)C)[C@@H](O)C[C@@H](C)C(=O)N[C@@H](C(C)C)C1CCCCO1 (stereo partly shown) [MMI-131] | – | 92900 | 58100 | –
COc1cccc(C(=O)N[C@@H](CSC)C(=O)N[C@@H](CC(C)C)[C@@H](O)C[C@@H](C)C(=O)N[C@@H](CC(C)C)C(=O)NC(C)C)c1OC [MMI-199] | – | 963 | 602 | Ki (memapsin 2; Ki, [I] < 100, memapsin 2, [I] < 100 (nM)): 190 nM
CSCC[C@H](NC(=O)[C@@H](NC(=O)OC(C)(C)C)C(C)C)C(=O)N[C@@H](CC(C)C)[C@@H](O)C[C@H](C)NC(=O)[C@@H](NC(=O)OCc1ccccc1)C(C)C [MMI-168] | 0.75 | – | – | –
CSCC[C@H](NC(=O)[C@@H](NC(=O)OC(C)(C)C)C(C)C)C(=O)N[C@@H](CC(C)C)[C@@H](O)C[C@@H](C)C(=O)N[C@H](C(=O)NCc1cccnc1)C(C)C [MMI-087] | – | 905 | 565 | –
CC(C)C[C@H](NC(=O)[C@H](CCS(C)(=O)=O)NC(=O)[C@@H](NC(=O)OC(C)(C)C)C(C)C)[C@@H](O)C[C@@H](C)C(=O)N[C@@H]1c2ccccc2C[C@@H]1O [MMI-054] | – | – | 293000 | –
CSCC[C@H](NC(=O)OCCn1nc(C(C)(C)C)cc1C(C)(C)C)C(=O)N[C@@H](CC(C)C)[C@@H](O)C[C@@H](C)C(=O)N[C@@H](CC(C)C)C(=O)NCC(C)C [MMI-177] | 1.16 | – | – | –
C=CCCOC(=O)N[C@H](C(=O)N[C@@H](CC(=O)NCC=C)C(=O)N[C@@H](CC(C)C)[C@@H](O)C[C@@H](C)C(=O)N[C@H](C(=O)NCc1ccccc1)C(C)C)C(C)C [MMI-151] | 0.56 | – | – | –
CSCC[C@H](NC(=O)[C@@H](NC(=O)OC(C)(C)C)[C@H](C)O)C(=O)N[C@@H](CC(C)C)[C@@H](O)C[C@@H](C)C(=O)N[C@@H](CC(C)C)C(=O)NC(C)C [MMI-197] | – | 94.5 | 59.1 | –
CC(C)C[C@H](NC(=O)[C@H](C)C[C@H](O)[C@H](CC(C)C)NC(=O)[C@H](CS(C)(=O)=O)NC(=O)OCc1ccccn1)C(=O)NCc1ccccc1 [MMI-126] | 0.72 | – | – | –
CSCC[C@H](NC(=O)OCn1nc(C)cc1C)C(=O)N[C@@H](CC(C)C)[C@@H](O)C[C@@H](C)C(=O)N[C@H](C(=O)N1CCN(C)CC1)C(C)C [MMI-217] | – | 1070 | 670 | –

Structure (SMILES) | Vi/Vo (memapsin 2) | Ki (memapsin 2; [2]) [nM] | Ki (memapsin 2; [3]) [nM] | also measured
CSCC[C@H](NC(=O)OC(C)(C)C)C(=O)N[C@@H](CC(C)C)[C@@H](O)C[C@@H](C)C(=O)N[C@@H](C)C(=O)NCc1ccccc1 [MMI-006] | – | 63300 | 40200 | –
CSCC[C@H](NC(=O)[C@@H](NC(=O)OC(C)(C)C)C(C)C)C(=O)N[C@@H](CC(C)C)[C@@H](O)C[C@@H](CCO)C(=O)N[C@H](C(=O)NCc1ccccc1)C(C)C [MMI-037] | – | 104 | 64.8 | –
CSCC[C@H](NC(=O)[C@@H](NC(=O)OC(C)(C)C)C(C)C)C(=O)N[C@@H](CC(C)C)[C@@H](O)C[C@H](C)NC(=O)[C@H](NC(=O)OCc1ccccc1)C(C)C [MMI-169] | 1.1 | – | – | –
CSCC[C@H](NC(=O)[C@@H](NC(=O)OC(C)(C)C)C(C)C)C(=O)N[C@@H](CC(C)C)[C@@H](O)C[C@@H](CC(F)(F)F)C(=O)N[C@H](C(=O)NCc1ccccc1)C(C)C [MMI-030] | – | 8520 | 5320 | –
CC(C)C[C@H](NC(=O)[C@H](CC(N)=O)NC(=O)[C@@H](NC(=O)OC(C)(C)C)C(C)C)[C@@H](O)C[C@@H](C)C(=O)N[C@@H](C)C(=O)NCc1ccccc1 [MMI-005] | – | 126 | 78.9 | –
CSCC[C@H](NS(=O)(=O)c1ccc(CO)cc1)C(=O)N[C@@H](Cc1ccccc1)[C@@H](O)C[C@@H](C)C(=O)N[C@H](C(=O)NCc1ccccc1)C(C)C [MMI-048] | – | 54800 | 34200 | –
CSCC[C@H](NC(=O)[C@@H](NC(=O)OC(C)(C)C)C(C)C)C(=O)N[C@@H](CC(C)C)[C@@H](O)C[C@@H](C)C(=O)N[C@@H](C(=O)NCc1ccccc1)[C@@H](C)O [MMI-072] | 0.9 | – | – | –
CC(C)C[C@H](NC(=O)[C@H](CS(C)(=O)=O)NC(=O)OCc1ccncc1)[C@@H](O)C[C@@H](C)C(=O)N[C@H](C(=O)NCc1ccccc1)C(C)C [MMI-128] | 0.66 | – | – | –
CSCC[C@H](NC(=O)[C@@H](NC(=O)OC(C)(C)C)C(C)C)C(=O)N[C@@H](CC(C)C)[C@@H](O)C[C@@H](C)C(=O)N[C@@H](CC(C)C)C(=O)NCCc1c[nH]c2ccccc12 [MMI-065] | – | 68.7 | 42.9 | –
Cc1c(O)cccc1C(=O)N[C@@H](CCS(C)(=O)=O)C(=O)N[C@@H](CC(C)C)[C@@H](O)C[C@@H](C)C(=O)N[C@@H](CC(C)C)C(=O)NCc1ccccc1 [MMI-123] | 0.61 | – | – | –
CC(C)C[C@H](NC(=O)[C@H](CCS(C)(=O)=O)NC(=O)OCc1ccc(CN(C)C)o1)[C@@H](O)C[C@@H](C)C(=O)N[C@H](C(=O)NCc1ccccc1)C(C)C [MMI-129] | 1.01 | – | – | –
CC(C)C[C@H](NC(=O)[C@H](CCS(C)(=O)=O)NC(=O)OCc1ccoc1)[C@@H](O)C[C@@H](C)C(=O)N[C@H](C(=O)NCc1ccccc1)C(C)C [MMI-137] | 0.85 | – | – | –
CSCC[C@H](C[C@H](O)[C@H](Cc1ccccc1)NC(=O)[C@H](CCSC)NC(=O)[C@@H](NC(=O)OC(C)(C)C)C(C)C)C(=O)N[C@H](C(=O)NCc1ccccc1)C(C)C [MMI-201] | – | 58 | 36.2 | –
CSCC[C@H](NC(=O)NCc1ccco1)C(=O)N[C@@H](CC(C)C)[C@@H](O)C[C@@H](C)C(=O)N[C@H](C(=O)NCc1ccccc1)C(C)C [MMI-117] | 0.57 | – | – | –
CC(C)C[C@H](NC(=O)OC(C)(C)C)C(=O)N[C@H](CCS(C)(=O)=O)C(=O)N[C@@H](CC(C)C)[C@@H](O)C[C@@H](C)C(=O)N[C@H](C(=O)NCc1ccccc1)C(C)C [MMI-105] | – | 201 | 125 | –
CSCC[C@H](NC(=O)[C@@H](NC(=O)OC(C)(C)C)C(C)C)C(=O)N[C@@H](CC(C)C)[C@@H](O)C[C@@H](C)C(=O)N[C@@H]1CCCC[C@@H]1O [MMI-059] | – | 66300 | 41400 | –

From patent US20040121947A1, “Compounds which inhibit beta-secretase activity and methods of use thereof” (Oklahoma Medical Research Foundation, priority 2000, published 2004)
